Reference: patent US9216999B2, “Substituted pyrrolo[2,3-h][1,6]naphthyridines and compositions thereof as JAK inhibitors” (priority 2011, dated 2015)
Like-named read-outs stand apart in the source and are kept apart here.

Assays:
Assay type in all cases: biochemical
[1] = biological target: JAK2 (Homo sapiens (Human), UniProt O60674); test: Enzyme assay (Assay Example^a 1), JAK2
[2] = biological target: JAK1 (Homo sapiens (Human), UniProt P23458); test: Enzyme assay (Assay Example^a 1), JAK1; settings: ATP 100 μM
[3] = biological target: Tyk2 (Homo sapiens (Human), UniProt P29597); test: Enzyme assay (Assay Example^a 1), Tyk2; settings: ATP 100 μM
[4] = biological target: JAK3 (Homo sapiens (Human), UniProt P52333); test: Enzyme assay (Assay Example^a 1), JAK3
Sequence of JAK3 (P52333 whole entry): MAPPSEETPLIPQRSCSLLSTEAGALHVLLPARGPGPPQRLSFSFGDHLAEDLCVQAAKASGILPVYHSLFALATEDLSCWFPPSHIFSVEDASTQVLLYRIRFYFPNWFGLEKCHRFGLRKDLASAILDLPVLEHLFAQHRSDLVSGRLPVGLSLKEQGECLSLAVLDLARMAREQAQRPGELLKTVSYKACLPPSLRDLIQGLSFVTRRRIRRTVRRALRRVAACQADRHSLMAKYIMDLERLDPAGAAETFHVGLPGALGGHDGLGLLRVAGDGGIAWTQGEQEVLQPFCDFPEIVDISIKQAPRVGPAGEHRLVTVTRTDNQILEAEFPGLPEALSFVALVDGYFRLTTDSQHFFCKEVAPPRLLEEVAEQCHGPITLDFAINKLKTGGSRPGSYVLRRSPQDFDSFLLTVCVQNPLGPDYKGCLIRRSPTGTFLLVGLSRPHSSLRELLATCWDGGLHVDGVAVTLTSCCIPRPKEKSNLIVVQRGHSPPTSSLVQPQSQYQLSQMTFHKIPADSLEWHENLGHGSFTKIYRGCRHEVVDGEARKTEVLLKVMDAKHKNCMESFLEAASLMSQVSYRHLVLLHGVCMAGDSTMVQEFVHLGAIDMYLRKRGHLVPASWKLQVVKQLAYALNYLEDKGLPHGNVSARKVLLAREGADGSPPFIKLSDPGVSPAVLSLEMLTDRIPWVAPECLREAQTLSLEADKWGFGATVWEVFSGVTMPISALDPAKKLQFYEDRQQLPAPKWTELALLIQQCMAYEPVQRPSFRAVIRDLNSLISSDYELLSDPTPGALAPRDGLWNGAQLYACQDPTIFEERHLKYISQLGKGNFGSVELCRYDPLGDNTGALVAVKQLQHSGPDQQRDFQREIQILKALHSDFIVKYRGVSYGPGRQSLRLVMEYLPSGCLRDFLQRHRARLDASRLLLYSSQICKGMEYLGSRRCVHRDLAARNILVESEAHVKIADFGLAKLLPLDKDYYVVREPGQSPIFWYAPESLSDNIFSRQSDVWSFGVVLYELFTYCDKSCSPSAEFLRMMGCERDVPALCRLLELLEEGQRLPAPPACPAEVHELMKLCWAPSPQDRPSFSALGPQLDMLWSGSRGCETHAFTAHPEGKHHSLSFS

Sequence of Tyk2 (P29597 whole entry): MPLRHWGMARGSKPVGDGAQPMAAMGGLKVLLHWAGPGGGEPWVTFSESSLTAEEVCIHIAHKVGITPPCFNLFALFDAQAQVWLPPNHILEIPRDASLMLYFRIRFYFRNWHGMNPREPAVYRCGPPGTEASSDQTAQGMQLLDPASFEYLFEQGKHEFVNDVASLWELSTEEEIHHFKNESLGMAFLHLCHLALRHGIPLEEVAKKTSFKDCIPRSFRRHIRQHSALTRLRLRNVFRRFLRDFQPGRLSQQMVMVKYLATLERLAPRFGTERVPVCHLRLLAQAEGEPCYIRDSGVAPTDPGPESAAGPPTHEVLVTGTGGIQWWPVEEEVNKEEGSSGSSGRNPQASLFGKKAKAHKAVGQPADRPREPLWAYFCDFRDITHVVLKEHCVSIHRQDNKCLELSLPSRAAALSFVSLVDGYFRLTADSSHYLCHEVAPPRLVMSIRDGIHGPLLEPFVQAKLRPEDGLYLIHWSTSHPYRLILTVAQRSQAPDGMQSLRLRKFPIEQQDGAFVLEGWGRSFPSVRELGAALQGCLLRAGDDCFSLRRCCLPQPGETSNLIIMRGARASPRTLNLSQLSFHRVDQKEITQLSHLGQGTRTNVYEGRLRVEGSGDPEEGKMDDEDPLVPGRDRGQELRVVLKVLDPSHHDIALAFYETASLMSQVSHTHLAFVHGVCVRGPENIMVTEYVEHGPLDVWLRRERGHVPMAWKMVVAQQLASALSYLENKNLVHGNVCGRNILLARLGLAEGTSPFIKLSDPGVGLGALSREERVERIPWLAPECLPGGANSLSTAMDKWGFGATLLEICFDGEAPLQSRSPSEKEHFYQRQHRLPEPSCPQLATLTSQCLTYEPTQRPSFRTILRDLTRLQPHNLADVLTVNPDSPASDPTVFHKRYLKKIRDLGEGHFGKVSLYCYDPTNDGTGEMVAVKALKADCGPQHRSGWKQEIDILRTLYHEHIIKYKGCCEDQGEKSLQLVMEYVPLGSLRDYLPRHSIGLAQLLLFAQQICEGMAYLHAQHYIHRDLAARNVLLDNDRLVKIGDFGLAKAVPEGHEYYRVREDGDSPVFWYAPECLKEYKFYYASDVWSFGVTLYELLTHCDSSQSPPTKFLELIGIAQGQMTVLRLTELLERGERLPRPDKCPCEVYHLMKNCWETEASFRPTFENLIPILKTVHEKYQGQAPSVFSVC

SMILES	IC50 ([1]; ATP 100 μM) [µM]	IC50 [2] [µM]	IC50 [3] [µM]	IC50 ([4]; ATP 100 μM) [µM]	IC50 ([1]; ATP 100 μM, Table^a 154) [µM]	IC50 ([2]; Table^a 154) [µM]	IC50 ([3]; Table^a 154) [µM]	IC50 ([4]; ATP 100 μM, Table^a 154) [µM]	IC50 [1] [µM]	IC50 [4] [µM]
N#CC1CN(C[C@H]2CC[C@H](c3nnn4cnc5[nH]ccc5c34)CC2)C1 [compound 281, 1-{[trans-4-(7H-pyrrolo[3,2-e][1,2,3]triazolo[1,5-c]pyrimidin-1-yl)cyclohexyl]methyl}azetidine-3-carbonitrile]	0.05	0.0077	0.48	0.15						
Clc1ccc(NC2CCC(c3nnn4cnc5[nH]ccc5c34)CC2)cc1 (centres unmarked) [compound 205, N-[4-(7H-Pyrrolo[3,2-e]r[1,2,3]triazolo[1,5-c]pyrimidin-1-yl)cyclohexyl]-4-chloroaniline]					0.25	0.026	0.75	> 1		
N#C[C@H]1CC[C@H](c2nnn3cnc4[nH]ccc4c23)CC1 [compound 430, trans-4-(7H-Pyrrolo[3,2-e][1,2,3]triazolo[1,5-c]pyrimidin-1-yl)cyclohexanecarbonitrile]	0.049	0.0086	0.41	> 1						
Fc1cc(Cl)ccc1CN1CCC(c2nnn3cnc4[nH]ccc4c23)CC1 [compound 158]					0.0044	0.0007	0.097	0.059		
O=C(C[C@H]1CC[C@@H](c2nnn3cnc4[nH]ccc4c23)CC1)NCC(F)(F)F [442a, 2-[cis-4-(7H-Pyrrolo[3,2-e][1,2,3]triazolo[1,5-c]pyrimidin-1-yl)cyclohexyl]-N-2,2,2-trifluoroethylacetamide]	0.061	0.027	0.79	0.52						
Clc1ccc(NC[C@H]2CC[C@H](c3nnn4cnc5[nH]ccc5c34)CC2)cc1 [compound 176, N-{[trans-4-(7H-pyrrolo[3,2-e][1,2,3]triazolo[1,5-c]pyrimidin-1-yl)cyclohexyl]methyl}-4-chloroaniline]					0.19	0.034	> 1	> 1		
FC(F)(F)c1ccc(CCN2CCC(c3nnn4cnc5[nH]ccc5c34)CC2)cc1 [compound 42]					0.41	0.082	> 1	> 1		
N#Cc1ccc(CCN[C@H]2CC[C@H](c3nnn4cnc5[nH]ccc5c34)CC2)cc1 [391b, 4-(2-{[trans-4-(7H-pyrrolo[3,2-e][1,2,3]triazolo[1,5-c]pyrimidin-1-yl)cyclohexyl]amino}ethyl)benzonitrile]	0.39	0.018	0.58	> 1						
N#CCCN(C[C@H]1CC[C@H](c2nnn3cnc4[nH]ccc4c23)CC1)c1ccccc1 [compound 300, 3-({[trans-4-(7H-pyrrolo[3,2-e][1,2,3]triazolo[1,5-c]pyrimidin-1-yl)cyclohexyl]methyl}(phenyl)amino)propanenitrile]	0.059	0.025	> 1	0.75						
CC(C)NC[C@H]1CC[C@H](c2nnn3cnc4[nH]ccc4c23)CC1 [compound 331, N-{[trans-4-(7H-pyrrolo[3,2-e][1,2,3]triazolo[1,5-c]pyrimidin-1-yl)cyclohexyl]methyl}propan-2-amine]	0.054	0.0088	0.42	> 1						
FC(F)(F)C(F)(F)CN[C@H]1CC[C@@H](c2nnn3cnc4[nH]ccc4c23)CC1 [383a, cis-N-(2,2,3,3,3-pentafluoropropyl)-4-(7H-pyrrolo[3,2-e][1,2,3]triazolo[1,5-c]pyrimidin-1-yl)cyclohexanamine]	0.37	0.09	> 1	> 1						
CC(C)(C)NC[C@H]1CC[C@H](c2nnn3cnc4[nH]ccc4c23)CC1 [compound 332, N-{[trans-4-(7H-pyrrolo[3,2-e][1,2,3]triazolo[1,5-c]pyrimidin-1-yl)cyclohexyl]methyl}-2-methylpropan-2-amine]	0.045	0.012	0.49	> 1						
O=C1COc2cc(NC[C@H]3CC[C@H](c4nnn5cnc6[nH]ccc6c45)CC3)ccc2N1 [compound 273, 7-({[trans-4-(7H-pyrrolo[3,2-e][1,2,3]triazolo[1,5-c]pyrimidin-1-yl)cyclohexyl]methyl}amino)-2H-benzo[b][1,4]oxazin-3(4H)-one]	0.021	0.0046	0.24	0.57						
O=C(CN[C@H]1CC[C@@H](c2nnn3cnc4[nH]ccc4c23)CC1)NCC(F)(F)F [384a, 2-{[cis-4-(7H-pyrrolo[3,2-e][1,2,3]triazolo[1,5-c]pyrimidin-1-yl)cyclohexyl]amino}-N-(2,2,2-trifluoroethyl)acetamide]	0.56	0.087	> 1	> 1						
OCCN(CCO)C[C@H]1CC[C@H](c2nnn3cnc4[nH]ccc4c23)CC1 [compound 298, 2,2′-({[trans-4-(7H-pyrrolo[3,2-e][1,2,3]triazolo[1,5-c]pyrimidin-1-yl)cyclohexyl]methyl}azanediyl)diethanol]	0.11	0.019	0.59	> 1						
N#CCN(CC1CC1)C[C@H]1CC[C@H](c2nnn3cnc4[nH]ccc4c23)CC1 [compound 414, 2-({[trans-4-(7H-pyrrolo[3,2-e][1,2,3]triazolo[1,5-c]pyrimidin-1-yl)cyclohexyl]methyl}(cyclopropylmethyl)amino)acetonitrile]	0.13	0.0095	0.11	> 1						
N#C/C(=C\N1CCC(c2nnn3cnc4[nH]ccc4c23)CC1)c1ccccc1 [compound 230, (Z)-3-[4-(7H-pyrrolo[3,2-e][1,2,3]triazolo[1,5-c]pyrimidin-1-yl)piperidin-1-yl]-2-phenylacrylonitrile]	0.13	0.035	> 1	> 1						
c1cc2c(ncn3nnc([C@H]4CC[C@H](CNC5COC5)CC4)c23)[nH]1 [compound 294, N-{[trans-4-(7H-pyrrolo[3,2-e][1,2,3]triazolo[1,5-c]pyrimidin-1-yl)cyclohexyl]methyl}oxetan-3-amine]	0.12	0.022	0.34	0.48						
N#Cc1ccc(CN[C@H]2CC[C@@H](c3nnn4cnc5[nH]ccc5c34)CC2)cc1 [137a]					0.49	0.032	0.31	> 1		
CSc1ccc(C(O)(CN[C@H]2CC[C@H](c3nnn4cnc5[nH]ccc5c34)CC2)C(F)(F)F)cc1 (stereo partly drawn) [386b, 3-{[trans-4-(7H-pyrrolo[3,2-e][1,2,3]triazolo[1,5-c]pyrimidin-1-yl)cyclohexyl]amino}-1,1,1-trifluoro-2-[4-(methylthio)phenyl]propan-2-ol]	0.027	0.0017	0.39	0.28						
C(=C\c1ccco1)/CN1CCC(c2nnn3cnc4[nH]ccc4c23)CC1 [compound 215, (E)-1-{1-[3-(furan-2-yl)allyl]piperidin-4-yl}-7H-pyrrolo[3,2-e][1,2,3]triazolo[1,5-c]pyrimidine]	0.25	0.026	> 1	> 1						
c1cc2c(ncn3nnc([C@H]4CC[C@H](CN5CCC5)CC4)c23)[nH]1 [compound 286, 1-[trans-4-(azetidin-1-ylmethyl)cyclohexyl]-7H-pyrrolo[3,2-e][1,2,3]triazolo[1,5-c]pyrimidine]	0.035	0.0059	0.23	0.57						
Fc1ccc(CN[C@H]2CC[C@H](c3nnn4cnc5[nH]ccc5c34)CC2)cc1 [195b, trans-N-(4-fluorobenzyl)-4-(7H-pyrrolo[3,2-e][1,2,3]triazolo[1,5-c]pyrimidin-1-yl)cyclohexanamine]					0.042	0.007	0.12	0.56		
Clc1n[nH]c2ccc(CN3CCC(c4nnn5cnc6[nH]ccc6c45)CC3)cc12 [compound 217, 1-{1-[(3-chloro-1H-indazol-5-yl)methyl]piperidin-4-yl}-7H-pyrrolo[3,2-e][1,2,3]triazolo[1,5-c]pyrimidine]	0.18	0.08	> 1	0.38						
CCOC(=O)CC1CCC(c2nnn3cnc4[nH]ccc4c23)CC1 (centres unmarked) [compound 438, Ethyl 2-[4-(7H-pyrrolo[3,2-e][1,2,3]triazolo[1,5-c]pyrimidin-1-yl)cyclohexyl]acetate]	0.044	0.017	0.58	0.34						
FC(F)(Br)CN[C@H]1CC[C@H](c2nnn3cnc4[nH]ccc4c23)CC1 [382b, trans-N-(2-bromo-2,2-difluoroethyl)-4-(7H-pyrrolo[3,2-e][1,2,3]triazolo[1,5-c]pyrimidin-1-yl)cyclohexanamine]		0.00031	0.013						0.0028	0.07
CC(=O)N[C@@H]1CCN(C[C@H]2CC[C@H](c3nnn4cnc5[nH]ccc5c34)CC2)C1 [compound 318, N-((R)-1-{[trans-4-(7H-pyrrolo[3,2-e][1,2,3]triazolo[1,5-c]pyrimidin-1-yl)cyclohexyl]methyl}pyrrolidin-3-yl)acetamide]	0.057	0.0048	0.61	> 1						
OC[C@H]1CCCN1C[C@H]1CC[C@H](c2nnn3cnc4[nH]ccc4c23)CC1 [compound 265, ((R)-1-{[trans-4-(7H-pyrrolo[3,2-e][1,2,3]triazolo[1,5-c]pyrimidin-1-yl)cyclohexyl]methyl}pyrrolidin-2-yl)methanol]	0.18	0.046	> 1	> 1						
O=C(NCCc1ccc(F)cc1)[C@H]1CC[C@H](c2nnn3cnc4[nH]ccc4c23)CC1 [compound 208, trans-N-(4-fluorophenethyl)-4-(7H-pyrrolo[3,2-e][1,2,3]triazolo[1,5-c]pyrimidin-1-yl)cyclohexanecarboxamide]					0.033	0.0028	0.37	0.36		
